Columns and labels:
[1] = test system: BCMA CAR T cells, with or without the CACCR; assay: Rituximab-mediated CAR T cell depletion in vivo (MM.1S-Luc-GFP-bearing mice); design: species or system NSG mice
Experimental: Next, we tested the effect of rituximab on decreasing BCMA CAR T cells, with or without the CACCR, in vivo. […] Rituximab (10 mg/kg) or PBS vehicle control was dosed intraperitoneally starting on the day of CAR T cell dosing and then daily for 4 additional days (n=9 or 10 per group).

[2] = test system: BCMA CAR T cells with or without the CACCR; assay: Rituximab NK cell-mediated antibody-dependent cellular cytotoxicity assay; assay type: cell-based; settings: both types of BCMA CAR T cells
From the text: (§1) To minimize any potential safety concerns in clinical development, the BCMA CAR construct was designed to incorporate two rituximab mimotopes, which would sensitize the BCMA CAR T cells to rituximab-mediated depletion. We next tested the effects of rituximab on the BCMA CAR T cells with or without the CACCR.

[3] = test system: BCMA CAR T cells with or without the CACCR; assay: Rituximab complement-dependent cytotoxicity assay; assay type: cell-based; settings: both types of BCMA CAR T cells
From the text: as §1

[4] = test system: BCMA CAR T cells with or without the CACCR
Experimental: We tested in an in vitro cell killing assay the effect of 150 nM dasatinib on the activities of the BCMA CAR T cells with or without the CACCR.

rituximab
tumor burden following rituximab-mediated CAR T cell depletion ([1]; rituximab 10 mg/kg i.p.): compromised anti-tumor efficacy | CAR T cell counts in peripheral blood ([1]; rituximab 10 mg/kg i.p. daily for 5 days, 7 days post-CAR T cell dosing): efficient and complete elimination of both CAR T cells | viable CAR T cells [2]: significantly decreased viable CAR T cells in a dose-responsive manner | viable CAR T cells [3]: significantly decreased viable CAR T cells in a dose-responsive manner

Cc1nc(Nc2ncc(C(=O)Nc3c(C)cccc3Cl)s2)cc(N2CCN(CCO)CC2)n1 [dasatinib]
cytotoxicity of BCMA CAR T cells [4]: abolished the cytotoxicity
